Laboratory results published in PMC2904697, “A Screen for Kinetochore-Microtubule Interaction Inhibitors Identifies Novel Antitubulin Compounds” (PLoS ONE, 2010).

Key:
taxol-stabilized MTs = test: Compound-based depolymerization of taxol-stabilized MTs in vitro; format: biochemical, bovine; conditions: compound 50 µmol/l; for Taxol-stabilized MT population depolymerized: taxol (20 µmol/l)-stabilized MTs
Method: To test this hypothesis, we treated HeLa cells with 0.5 µmol/l taxol, thereby arresting them in metaphase with stabilized spindles. […] To quantify the taxol-mediated inhibition of MT disassembly by compound B, we measured in vitro the depolymerization of taxol (20 µmol/l)-stabilized MTs following incubation with 50 µmol/l compound B (the screen condition). Nocodazole and maytansine (both at 50 µmol/l) were included as controls. At 50 µmol/l, compound B depolymerized 3% of the taxol-stabilized MT population, while nocodazole and maytansine depolymerized 11% and 31% of the taxol-treated MTs, respectively (Fig. 4B). […] This finding further supports our hypothesis that the interaction of compound B with the stabilized MTs must have prevented the Ndc80^488 complex from establishing contact with the MT surface.
MTs were polymerized (30 min, 37°C) from a 1∶10 mixture of rhodamine-labeled:unlabeled bovine brain αβ-tubulin (Cytoskeleton) in BRB-80 buffer (80 mmol/l PIPES pH 6.8, 1 mmol/l MgCl2, 1 mmol/l EGTA) and were then stabilized with 20 µmol/l taxol. The Ndc80^488 complex (0.1 µmol/l) was incubated with 100 µmol/l compound (30 min, 24°C) in 96-well polypropylene plates (Eppendorf). The 10,000 compound DIVERset library (Chembridge) and 200 compounds from the Department of Medicinal Chemistry and Technologies, University of Rome La Sapienza were used in the screen. Next, the MTs (100 nmol/l) were added to the compound-Ndc80^488 complex solution in a 1∶1 v/v ratio. After incubation (10 min, 24°C), the reaction mixtures were transferred to 96-well glass-bottom plates (Greiner Bio-one). Each well was imaged at 519 nm and 590 nm with an IX81 Olympus inverted wide-field microscope (Olympus). Total internal reflection fluorescence imaging was performed with an Olympus IX71 inverted wide-field microscope (Olympus). ImageJ was used for image processing (NIH, USA).
Taxol-stabilized MTs were prepared and diluted as described for the Ndc80^488 binding experiments. Varying compound concentrations in 10 µl of DMSO were added to 490 µl of diluted MTs at 37°C. Following incubation (30 min, 37°C), 450 µl of each mixture was centrifuged (10 min; 30,000 rpm; 37°C) in a Beckman Optima TLX centrifuge (TLA120.1 rotor). Pellets were dissolved in 25 µl of 8 mol/l urea, and the protein content of 20 µl was compared with that from pellets formed without compound.

[1] = tested on: colchicine site in αβ-tubulin; test: [3H]colchicine competition (DEAE-cellulose filter method); format: binding; conditions: [3H]colchicine 5 µmol/l, tubulin 1 µmol/l
From the text: Agents that inhibit tubulin polymerization and destabilize MTs include the colchicinoids, combretastatins, benzimidazole carbamates, vinca alkaloids, and maytansinoids. These drugs act primarily at β-tubulin in the αβ-heterodimer, albeit at different sites. Colchicinoids, combretastatins and benzimidazole carbamates (e.g. nocodazole) localize to the colchicine site near the C-terminus of β-tubulin at the αβ-tubulin intradimer interface, [16], whereas vinca alkaloids and maytansinoids localize to the N-terminal GTPase domain of β-tubulin [17], [18]. […] Its binding affinity, however, was ∼3-fold lower than that of nocodazole (compare values at 5 µmol/l and 20 µmol/l, Fig. 5C).
Tubulin binding of [^3H]colchicine was measured by the DEAE-cellulose filter method. Reaction mixtures contained 1.0 µmol/l αβ-tubulin, 1.0 mol/l monosodium glutamate, 0.1 mol/l glucose-1-phosphate, 1.0 mmol/l MgCl2, 1.0 mmol/l GTP, 0.5 mg/ml BSA, 5% DMSO, 5 µmol/l [^3H]colchicine, and inhibitor at 1, 5, 20 or 50 µmol/l. These reaction conditions strongly stabilize the colchicine-binding activity of tubulin [21].

HeLa cells [2] = test: Mitotic delay and cell death in G1/S-synchronized HeLa cells (time-lapse videomicroscopy); format: cell-based, human
Method: (§1) At compound B concentrations of 5 µmol/l and above, the cells arrested robustly in metaphase (∼15 h) and then underwent cell death, as diagnosed by cell shrinkage (Fig. 3B). […] This phenotype is indicative of chromatids being unable to bind to spindle MTs and/or of spindle defects, as observed with nocodazole (Fig. 3C). […] Because drugs that inhibit tubulin polymerization also destabilize MTs, we next probed whether compound B destabilized metaphase spindles. We arrested HeLa cells in metaphase using 10 µmol/l of proteosome inhibitor MG132. […] Thus, compound B prevents tubulin assembly and destabilizes spindle MTs in cells.
Next, we determined whether the elevated antitubulin activities of compounds A6, A8, D7 and E7 (versus compound B), and the discrepancies in activity between the compounds themselves were reflected in their effects on mitosis. G1/S synchronized HeLa cells were released into growth medium containing 100 or 500 nmol/l of these compounds or compound B; the duration of the mitotic delay by the compounds and the percentage of cells undergoing subsequent cell death were scored. […] The four compounds triggered mitotic delays to an extent that directly reflects their activities in vitro (compare Fig. 6E and Fig. 6, panels B to D). […] Of note, each of our compounds acted in cells with an efficacy exceeding those measured in vitro (compare Fig. 6E and Fig. 5). This discrepancy may be due to increased compound:tubulin ratios in cells. Alternatively, the compounds may be modified intracellularly, resulting in enhanced activity. Because compound B and the four second-generation compounds are 6-furan-2-yl-3-methyl-4-oxo-4,5,6,7-tetrahydro-1H-indole-2-carboxylic acid derivatives, we have named these tubulin inhibitors “furan-metoticas”.

HeLa cells [3] = test: Spindle integrity and reversibility in HeLa cells (confocal IF imaging); format: cell-based, human; conditions: for Time after washout until all cells had arrested with a mitotic spindle (reversibility): compound B 5 µmol/l, washout and release into MG132 containing medium
Method: as §1
To probe whether the activity of compound B is reversible or not, we synchronously released G1/S arrested HeLa cells into fresh medium containing 5 µmol/l compound B (nocodazole was used as the positive control). The cells efficiently arrested in […] due to absence of a mitotic spindle (Fig. 3E, left column of images in each set). Compound B and nocodazole were then washed out and the cells were released in MG132 containing medium.
G1/S synchronization with 2.5 mmol/l thymidine was carried out for 16 h. IF imaging (Leica TCS SP2 confocal microscope) was performed on cells fixed with 4% paraformaldehyde, permeabilized with 0.1% Triton X-100 and treated with 4% BSA. The cells were incubated with appropriate antibodies diluted in 4% BSA in PBS. Primary antibodies used in IF imaging were mouse monoclonal antiNdc80 antibody (1∶1000, Genetex Clone 9G3.23), CREST serum (1∶50, Antibodies Incorporation) and mouse monoclonal anti-α-tubulin antibody (1∶2000, Sigma-Aldrich Clone B512). Secondary antibodies used were Alexa Fluor 488 (1∶150), Cy3 (1∶400) and Cy5 (1∶50) (Jackson Immunoresearch).

| Binding affinity for the colchicine site, fold lower than that of nocodazole ([1]; values at 5 and 20 µmol/l compared) | Inhibition of [3H]colchicine binding to tubulin ([1]; compound 1–50 µmol/l) | Fold more active than compound B as inhibitors of [3H]colchicine-tubulin binding [1] | SMILES | Taxol-stabilized MT population depolymerized (taxol-stabilized MTs) | Concentration inducing a mitotic delay (HeLa cells [2]; HeLa released from G1/S) | Concentration inducing cell death (HeLa cells [2]; HeLa released from G1/S) | Duration of metaphase arrest (HeLa cells [2]; HeLa, compound concentrations of 5 µmol/l and above, followed by cell death) | Effect on metaphase spindles of MG132-arrested cells (HeLa cells [3]; HeLa arrested with 10 µmol/l MG132, 10 µmol/l compound) | Spindle formation in cells released from G1/S (HeLa cells [3]; HeLa, 10 µmol/l compound, confocal IF) | Time after washout until all cells had arrested with a mitotic spindle (reversibility) (HeLa cells [3]; HeLa) | Depolymerization of taxol-stabilized MTs (taxol-stabilized MTs) | Effect on mitosis at 500 nmol/l (HeLa cells [2]; HeLa released from G1/S, 500 nmol/l) |
| --- | --- | --- | --- | --- | --- | --- | --- | --- | --- | --- | --- | --- |
| ~3 fold | significantly inhibited | – | Cc1c(C(=O)OCC2CCCO2)[nH]c2c1C(=O)CC(c1ccco1)C2 (centres unmarked) [compound B, 6-furan-2-yl-3-methyl-4-oxo-4,5,6,7,-tetrahydro-1H-indole-2-carboxylic acid tetrahydro-furan-2-ylmethyl ester] | 3% | 1 to 10 µmol/L | 5 to 10 µmol/L | ~15 h | depolymerized the spindle | All cells lacked a mitotic spindle | ≤ 3 h | – | – |
| – | – | – | COC(=O)Nc1nc2ccc(C(=O)c3cccs3)cc2[nH]1 [nocodazole, reference compound] | 11% | – | – | – | – | – | ≤ 3 h | – | – |
| – | – | 3 fold | CCSCCOC(=O)c1[nH]c2c(c1C)C(=O)C[C@@H](c1ccco1)C2 [A8] | – | – | – | – | – | – | – | mildly depolymerized | robust mitotic block, followed by cell death |
